Source: ChEMBL document CHEMBL6109108, “A comprehensive review of fused imidazonaphthyridine derivatives: Synthetic approaches and biological applications” (Bioorg Med Chem, 2025)

How the values were obtained:
[1] = test system: Candida metapsilosis; assay: Antifungal activity against Candida metapsilosis assessed as zone of inhibition at 35 ug/ml by disc diffusion method; type: functional; conditions: Lodderomyces metapsilosis, read-out: IZ
[2] = test system: Escherichia coli; assay: Antibacterial activity against Escherichia coli assessed as zone of inhibition at 35 ug/ml by agar disc diffusion method; type: functional; conditions: read-out: IZ
[3] = test system: Staphylococcus aureus; assay: Antibacterial activity against Staphylococcus aureus assessed as zone of inhibition at 10 ug/ml by agar disc diffusion method; type: functional; conditions: read-out: IZ
[4] = test system: Aspergillus niger; assay: Antifungal activity against Aspergillus niger assessed as zone of inhibition at 25 ug/ml by disc diffusion method; type: functional; conditions: read-out: IZ
[5] = test system: Candida metapsilosis; assay: Antifungal activity against Candida metapsilosis assessed as zone of inhibition at 10 ug/ml by disc diffusion method; type: functional; conditions: Lodderomyces metapsilosis, read-out: IZ
[6] = test system: Staphylococcus aureus; assay: Antibacterial activity against Staphylococcus aureus assessed as zone of inhibition at 35 ug/ml by agar disc diffusion method; type: functional; conditions: read-out: IZ
[7] = test system: Escherichia coli; assay: Antibacterial activity against Escherichia coli assessed as zone of inhibition at 10 ug/ml by agar disc diffusion method; type: functional; conditions: read-out: IZ
[8] = test system: Staphylococcus aureus; assay: Antibacterial activity against Staphylococcus aureus assessed as zone of inhibition at 25 ug/ml by agar disc diffusion method; type: functional; conditions: read-out: IZ
[9] = test system: Aspergillus niger; assay: Antifungal activity against Aspergillus niger assessed as zone of inhibition at 35 ug/ml by disc diffusion method; type: functional; conditions: read-out: IZ
[10] = test system: Aspergillus niger; assay: Antifungal activity against Aspergillus niger assessed as zone of inhibition at 10 ug/ml by disc diffusion method; type: functional; conditions: read-out: IZ
[11] = test system: Candida metapsilosis; assay: Antifungal activity against Candida metapsilosis assessed as zone of inhibition at 25 ug/ml by disc diffusion method; type: functional; conditions: Lodderomyces metapsilosis, read-out: IZ
[12] = test system: Escherichia coli; assay: Antibacterial activity against Escherichia coli assessed as zone of inhibition at 25 ug/ml by agar disc diffusion method; type: functional; conditions: read-out: IZ
[13] = test system: Aphis craccivora; assay: Anti-insecticidal activity against Aphis craccivora; type: functional
[14] = biological target: Voltage-gated inwardly rectifying potassium channel KCNH2 (Homo sapiens, UniProt Q12809); assay: Inhibition of hERG; type: toxicity
Chain of Voltage-gated inwardly rectifying potassium channel KCNH2 (Q12809 whole entry): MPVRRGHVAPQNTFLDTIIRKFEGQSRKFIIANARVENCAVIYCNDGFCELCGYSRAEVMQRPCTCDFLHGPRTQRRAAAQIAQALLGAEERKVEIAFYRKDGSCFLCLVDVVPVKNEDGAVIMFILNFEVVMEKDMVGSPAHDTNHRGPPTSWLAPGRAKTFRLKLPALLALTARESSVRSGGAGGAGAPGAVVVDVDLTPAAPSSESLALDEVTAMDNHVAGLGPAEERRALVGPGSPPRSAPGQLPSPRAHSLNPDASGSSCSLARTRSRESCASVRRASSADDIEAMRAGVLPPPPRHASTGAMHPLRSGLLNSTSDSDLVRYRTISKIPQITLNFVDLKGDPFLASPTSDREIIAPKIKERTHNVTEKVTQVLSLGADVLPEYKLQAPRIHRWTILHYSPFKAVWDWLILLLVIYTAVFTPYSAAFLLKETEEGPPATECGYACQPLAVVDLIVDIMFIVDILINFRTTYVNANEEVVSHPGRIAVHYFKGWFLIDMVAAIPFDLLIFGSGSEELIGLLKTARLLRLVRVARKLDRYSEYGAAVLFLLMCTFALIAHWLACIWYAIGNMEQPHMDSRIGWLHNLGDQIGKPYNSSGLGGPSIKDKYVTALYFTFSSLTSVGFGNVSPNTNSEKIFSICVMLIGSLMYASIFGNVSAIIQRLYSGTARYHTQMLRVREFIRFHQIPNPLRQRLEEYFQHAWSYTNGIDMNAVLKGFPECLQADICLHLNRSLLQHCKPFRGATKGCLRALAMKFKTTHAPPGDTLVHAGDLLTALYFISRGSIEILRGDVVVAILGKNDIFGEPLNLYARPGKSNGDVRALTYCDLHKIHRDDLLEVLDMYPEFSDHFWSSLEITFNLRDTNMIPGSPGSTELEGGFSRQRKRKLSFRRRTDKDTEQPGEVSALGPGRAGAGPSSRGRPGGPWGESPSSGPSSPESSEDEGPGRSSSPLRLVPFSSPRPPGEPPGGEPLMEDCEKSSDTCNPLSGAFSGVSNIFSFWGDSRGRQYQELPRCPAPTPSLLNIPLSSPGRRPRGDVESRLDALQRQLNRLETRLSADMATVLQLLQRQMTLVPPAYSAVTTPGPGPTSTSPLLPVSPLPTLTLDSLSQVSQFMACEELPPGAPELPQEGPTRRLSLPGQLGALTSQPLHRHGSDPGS

[15] = test system: Hepatitis C virus; assay: Antiviral activity against Hepatitis C virus genotype 2a infected in human Huh-7 cells assessed as reduction in viral infection; type: functional, organism-based, Hepacivirus hominis
[16] = test system: Bacillus subtilis; assay: Antibacterial activity against Bacillus subtilis assessed as zone of inhibition at 200 ug/ml by agar disc diffusion method; type: functional; conditions: read-out: IZ
[17] = test system: Bacillus subtilis; assay: Antibacterial activity against Bacillus subtilis assessed as zone of inhibition at 150 ug/ml by agar disc diffusion method; type: functional; conditions: read-out: IZ
[18] = test system: Pseudomonas aeruginosa; assay: Antibacterial activity against Pseudomonas aeruginosa assessed as zone of inhibition at 250 ug/ml by agar disc diffusion method; type: functional; conditions: read-out: IZ
[19] = test system: Staphylococcus aureus; assay: Antibacterial activity against Staphylococcus aureus assessed as zone of inhibition at 150 ug/ml by agar disc diffusion method; type: functional; conditions: read-out: IZ
[20] = test system: Escherichia coli; assay: Antibacterial activity against Escherichia coli assessed as zone of inhibition at 150 ug/ml by agar disc diffusion method; type: functional; conditions: read-out: IZ
[21] = test system: Escherichia coli; assay: Antibacterial activity against Escherichia coli assessed as zone of inhibition at 200 ug/ml by agar disc diffusion method; type: functional; conditions: read-out: IZ
[22] = test system: Pseudomonas aeruginosa; assay: Antibacterial activity against Pseudomonas aeruginosa assessed as zone of inhibition at 200 ug/ml by agar disc diffusion method; type: functional; conditions: read-out: IZ
[23] = test system: Escherichia coli; assay: Antibacterial activity against Escherichia coli assessed as zone of inhibition at 250 ug/ml by agar disc diffusion method; type: functional; conditions: read-out: IZ
[24] = test system: Pseudomonas aeruginosa; assay: Antibacterial activity against Pseudomonas aeruginosa assessed as zone of inhibition at 150 ug/ml by agar disc diffusion method; type: functional; conditions: read-out: IZ
[25] = test system: Staphylococcus aureus; assay: Antibacterial activity against Staphylococcus aureus assessed as zone of inhibition at 250 ug/ml by agar disc diffusion method; type: functional; conditions: read-out: IZ
[26] = test system: Staphylococcus aureus; assay: Antibacterial activity against Staphylococcus aureus assessed as zone of inhibition at 200 ug/ml by agar disc diffusion method; type: functional; conditions: read-out: IZ
[27] = test system: Bacillus subtilis; assay: Antibacterial activity against Bacillus subtilis assessed as zone of inhibition at 250 ug/ml by agar disc diffusion method; type: functional; conditions: read-out: IZ
[28] = biological target: hERG (KCNH2) (Homo sapiens, UniProt Q12809); assay: Inhibition of hERG potassium […] at 100 uM relative to control; type: toxicity
Chain of hERG (KCNH2) (Q12809 whole entry, the tested form may be a part): as the sequence (Q12809 whole entry) above

[29] = test system: Bacillus subtilis; assay: Antibacterial activity against Bacillus subtilis assessed as diameter of zone of inhibition at 600 ug/ml by agar disk diffusion method; type: functional; conditions: read-out: IZ
[30] = test system: Escherichia coli; assay: Antibacterial activity against Escherichia coli assessed as zone of inhibition at 600 ug/ml by agar disk diffusion method; type: functional; conditions: read-out: IZ
[31] = test system: Bacillus subtilis; assay: Antibacterial activity against Bacillus subtilis assessed as diameter of zone of inhibition at 400 ug/ml by agar disk diffusion method; type: functional; conditions: read-out: IZ
[32] = test system: Escherichia coli; assay: Antibacterial activity against Escherichia coli assessed as zone of inhibition at 400 ug/ml by agar disk diffusion method; type: functional; conditions: read-out: IZ
[33] = test system: Escherichia coli; assay: Antibacterial activity against Escherichia coli assessed as zone of inhibition at 25 ug/ml by agar well diffusion method; type: functional; conditions: read-out: IZ
[34] = test system: Staphylococcus aureus; assay: Antibacterial activity against Staphylococcus aureus assessed as zone of inhibition at 25 ug/ml by agar well diffusion method; type: functional; conditions: read-out: IZ
[35] = test system: Staphylococcus aureus; assay: Antibacterial activity against Staphylococcus aureus assessed as zone of inhibition at 35 ug/ml by agar well diffusion method; type: functional; conditions: read-out: IZ
[36] = test system: Escherichia coli; assay: Antibacterial activity against Escherichia coli assessed as zone of inhibition at 35 ug/ml by agar well diffusion method; type: functional; conditions: read-out: IZ
[37] = test system: Staphylococcus aureus; assay: Antibacterial activity against Staphylococcus aureus assessed as zone of inhibition at 10 ug/ml by agar well diffusion method; type: functional; conditions: read-out: IZ
[38] = test system: Escherichia coli; assay: Antibacterial activity against Escherichia coli assessed as zone of inhibition at 10 ug/ml by agar well diffusion method; type: functional; conditions: read-out: IZ

O=c1oc2ccccc2cc1-c1cnc2c(-c3cccc([N+](=O)[O-])c3)cc3cccnc3n12
zone of inhibition at 35 µg/mL [1]: 28 mm | zone of inhibition at 35 µg/mL [2]: 32 mm | zone of inhibition at 10 µg/mL [3]: 8 mm | zone of inhibition at 25 µg/mL [4]: 20 mm | zone of inhibition at 10 µg/mL [5]: 7 mm | zone of inhibition at 35 µg/mL [6]: 31 mm | zone of inhibition at 10 µg/mL [7]: 8 mm | zone of inhibition at 25 µg/mL [8]: 19 mm | zone of inhibition at 35 µg/mL [9]: 28 mm | zone of inhibition at 10 µg/mL [10]: 7 mm | zone of inhibition at 25 µg/mL [11]: 17 mm | zone of inhibition at 25 µg/mL [12]: 2 mm

N#Cc1c(N)nc2c(c1N)C(c1ccc(C(F)(F)F)cc1)C([N+](=O)[O-])=C1N(Cc3ccc(Cl)nc3)CCN12 (stereo not given)
LC50 [13]: 31 nM

Cc1cc(C)c2ccc3nc(-c4ccc(F)cc4)c(CN4CCOCC4)n3c2n1
IC50 [14]: > 50000 nM

Cc1cc(C)c2ccc3nc(-c4ccccc4)c(CN4CCCCC4)n3c2n1
IC50 [14]: 1190 nM

N#Cc1c(N)nc2c(c1N)C(c1ccc(F)cc1)C([N+](=O)[O-])=C1N(Cc3ccc(Cl)nc3)CCN12 (stereo not given)
LC50 [13]: 11 nM

O=c1oc2ccccc2cc1-c1cnc2c(-c3cccc(O)c3)cc3cccnc3n12
zone of inhibition at 35 µg/mL [1]: 28 mm | zone of inhibition at 35 µg/mL [2]: 32 mm | zone of inhibition at 10 µg/mL [3]: 8 mm | zone of inhibition at 25 µg/mL [4]: 20 mm | zone of inhibition at 10 µg/mL [5]: 7 mm | zone of inhibition at 35 µg/mL [6]: 31 mm | zone of inhibition at 10 µg/mL [7]: 8 mm | zone of inhibition at 25 µg/mL [8]: 19 mm | zone of inhibition at 35 µg/mL [9]: 28 mm | zone of inhibition at 10 µg/mL [10]: 7 mm | zone of inhibition at 25 µg/mL [11]: 17 mm | zone of inhibition at 25 µg/mL [12]: 2 mm

Cc1cc(C)c2ccc3nc(-c4ccccc4)c(CN4CCCC4)n3c2n1
IC50 [14]: 92200 nM

O=[N+]([O-])c1cccc(-c2cc3cccnc3n3c(-c4ccc(Cl)cc4)cnc23)c1
zone of inhibition at 35 µg/mL [1]: 28 mm | zone of inhibition at 35 µg/mL [2]: 30 mm | zone of inhibition at 10 µg/mL [3]: 8 mm | zone of inhibition at 25 µg/mL [4]: 20 mm | zone of inhibition at 10 µg/mL [5]: 7 mm | zone of inhibition at 35 µg/mL [6]: 29 mm | zone of inhibition at 10 µg/mL [7]: 8 mm | zone of inhibition at 25 µg/mL [8]: 19 mm | zone of inhibition at 35 µg/mL [9]: 28 mm | zone of inhibition at 10 µg/mL [10]: 7 mm | zone of inhibition at 25 µg/mL [11]: 17 mm | zone of inhibition at 25 µg/mL [12]: 20 mm

COc1ccc(-c2cc3c(C(F)(F)F)cc(C(F)(F)F)nc3n3c(-c4ccc(OC)cc4)cnc23)cc1
EC50 [15]: 4100 nM

Oc1ccc2nc3c(-c4ccccc4C(F)(F)F)cc4cccnc4n3c2c1
zone of inhibition at 200 µg/mL [16]: 19 mm | zone of inhibition at 150 µg/mL [17]: 16 mm | zone of inhibition at 250 µg/mL [18]: 22 mm | zone of inhibition at 150 µg/mL [19]: 18 mm | zone of inhibition at 150 µg/mL [20]: 17 mm | zone of inhibition at 200 µg/mL [21]: 22 mm | zone of inhibition at 200 µg/mL [22]: 20 mm | zone of inhibition at 250 µg/mL [23]: 22 mm | zone of inhibition at 150 µg/mL [24]: 17 mm | zone of inhibition at 250 µg/mL [25]: 22 mm | zone of inhibition at 200 µg/mL [26]: 20 mm | zone of inhibition at 250 µg/mL [27]: 23 mm

Cc1cc(C)c2ccc3nc(-c4ccccc4)c(CN4CCOCC4)n3c2n1
inhibition at 100 µM [28]: 10.1%

COc1ccc(-c2cc3cccnc3n3c2nc2ccccc23)cc1
zone of inhibition at 600 µg/mL [29]: 8.5 mm | zone of inhibition at 600 µg/mL [30]: 12.5 mm | zone of inhibition at 400 µg/mL [31]: 7.5 mm | zone of inhibition at 400 µg/mL [32]: 11.5 mm

Fc1ccc(-c2cc3cccnc3n3c(-c4ccc(Br)cc4)cnc23)c(Cl)c1
zone of inhibition at 25 µg/mL [33]: 16 mm | zone of inhibition at 25 µg/mL [34]: 16 mm | zone of inhibition at 35 µg/mL [35]: 24 mm | zone of inhibition at 35 µg/mL [36]: 25 mm | zone of inhibition at 10 µg/mL [37]: 6 mm | zone of inhibition at 10 µg/mL [38]: 6 mm
